Key:
PTK6 [1] = molecular target: T1, PTK6 (Homo sapiens, UniProt Q13882); assay: PTK6 degradation after MG132 proteasome inhibitor pretreatment (Western); format: cell-based; details: MDA-MB231 cells, MG132 10 uM 2 hours, then degrader 4 hours (FIG. 9)
T1 construct: endogenous in cells; host or cells: MDA-MB231 cells (ATCC)
Method: FIG. 9. PTK6 degrader suppresses PTK6 expression in a proteasome-dependent manner. MDA-MB231 cells (left) or OV2008 cells (right) were pre-treated with DMSO or MG-132 (10 uM) for two hours, then treated for an additional 4 hours with DMSO or PTK6 degrader at the indicated concentrations.
MDA-MB231 cells were pre-treated with MG132 (10 uM) or DMSO for 2 hours, then treated for additional 4 hours with PTK6 degrader YX39-105 or DMSO. Cells were lysed and expression of PTK6 was assessed by Western analysis.
(§1) Cells were lysed in 1% NP-40 lysis buffer containing NaF, Na3VO4, Leupeptin, PMSF, aprotinin, and phosphatase inhibitor (PhosSTOP, Roche) as described previously (Irie et al., 2010). Cleared cell lysates were stored at −80° C. and were analyzed by western analysis as described previously (Irie et al., 2010).

MCF7 cells = assay: 3D Cell Titer Glo viability of MCF7 ER+ breast cancer cells; format: cell-based; details: 0, 1, 2 and 5 μM, 4 days, 3D Cell Titer Glo (FIG. 7)
Method: FIG. 7a. PTK6 degrader treatment suppresses growth of ER+ breast cancer cells. ER+ breast cancer cells (MCF-7) were treated with indicated concentrations of top candidate degraders, negative control compounds or PTK6 kinase activity inhibitor for 24 hours, lysed and proteins were resolved by SDS-PAGE. PTK6 expression was interrogated by Western analysis. FIG. 7b. MCF-7 cells were seeded into 3D Matrigel cultures and treated with indicated PTK6 degraders or PTK6 kinase inhibitor for 4 days. Viability was quantified using 3-D Cell Titer glo (Promega).
MCF7 cells were treated with YX39-103, YX39-105, and compound 21d at 0, 1, 2 and 5 μM for 4 days using 3D Cell Titer Glo (Promega) assay conditions.
MDA-MB231, MCF-7, OV2008 and Hey C2 cells (3,000 cells) were added to 8-well chamber slides (BD Biosciences) coated with 50 μl of growth factor-reduced Matrigel™ Matrix basement membrane (Corning). Treatment with degrader was begun later the same day. Media was replaced every 3 days. Cells were imaged using the Axiovert 25 inverted microscope (Carl Zeiss AB). CellTiter-Glo 3D Cell Viability Assay (Promega) was used to quantitate viability of cells grown in Matrigel™ in 96-well plates.

PTK6 [2] = molecular target: T1, PTK6; assay: PTK6 degradation after PTK6 kinase inhibitor P21d pretreatment (Western); format: cell-based; details: MDA-MB231 cells, P21d 5 uM 2 hours, then degrader 24 hours (FIG. 10)
Method: FIG. 10. PTK6 kinase activity inhibitor pre-treatment prevents PTK6 degrader-dependent suppression of PTK6 expression. MDA-MB231 cells in monolayer cultures were pre-treated with DMSO or PTK6 kinase activity inhibitor (5 uM), then treated for an additional 24 hours with PTK6 degrader, YX39-105. Cells were lysed and expression of PTK6 was assessed by Western analysis.
MDA-MB231 cells pretreated with DMSO or PTK6 kinase activity inhibitor, P21d, (5 uM) for 2 hours were subsequently treated with PTK6 degrader YX39-105 for 24 hours. Expression of PTK6 was assessed by Western analysis.
as §1

PTK6 [3] = molecular target: T1, PTK6; assay: Western blot of PTK6 protein levels in MDA-MB231 cells; format: cell-based; details: MDA-231 (MDA-MB231) cells, 500 nM, 24 hours, Western blot (FIGS. 3-5)
Method: FIGS. 2-5. Effects of exemplary compounds on reducing PTK6 protein levels in breast cancer cells. Triple negative MDA-MB231 cells were treated for 24 hours with 500 nM, 2 uM or 2.5 uM of test compound and lysed. Proteins were resolved by SDS/PAGE and immunoblotted with antibody to PTK6 (Santa Cruz, Cell Signaling) or GAPDH loading control (Cell Signaling).
FIG. 13. PTK6 degraders suppress PTK6 expression. MDA-MB231 cells were treated with compounds (500 nM or 1 uM) for 24 hours in monolayer cultures. Cells were lysed and lysates were probed with anti-PTK6 antibody.
MDA-MB231 cells were treated with DMSO or indicated compounds at 2.5 uM, 2 uM or 500 nM for 24 hours.
MDA-MB231 cells were treated with compounds (500 nM or 1 uM) for 24 hours in monolayer cultures. Cells were lysed and lysates were probed with anti-PTK6 antibody.
as §1

MDA-MB231 cells = assay: 3D Matrigel culture of MDA-MB231 triple negative breast cancer cells (growth, invasive branching, viability); format: cell-based; details: 1 μM, 3 days, 3D cultures (FIG. 6)
Method: FIG. 6a. PTK6 degraders, but not kinase activity inhibitor suppress viability in 3D cultures. MDA-MB231 triple negative breast cancer cells were seeded into 3D Matrigel cultures (4×10^3 cells/well) and treated with indicated PTK6 degraders, negative control compounds or PTK6 kinase activity inhibitor at 1 uM for 5 days with re-feeding of compound after 3 days in culture. Viability was assessed using 3D Cell Titer glo (Promega). FIG. 6b. Expression of PTK6 in cells treated with PTK6 degraders, negative control compounds or PTK6 kinase activity inhibitor was assessed after 24 hour treatment in monolayer cultures with 1 uM of compound. Cells were lysed and proteins were resolved and probed with anti-PTK6 antibody (Cell Signaling)
FIG. 12a. […] Expression of PTK6 in cells treated with PTK6 degraders, negative control compounds or PTK6 kinase activity inhibitor was assessed after 24 hour treatment in monolayer cultures with 1 uM of compound. […] Viability was assessed using 3D Cell Titer glo (Promega). […]
MDA-MB231 triple negative breast cancer cells were seeded into 3D Matrigel cultures (4×10^3 cells/well) and treated with indicated PTK6 degraders, negative control compounds or PTK6 kinase activity inhibitor at 1 uM for 6 days with re-feeding of compound after 3 days in culture (FIG. 12B). Viability was assessed using 3D Cell Titer glo (Promega). […]

CP70 cells = assay: 3D culture viability of platinum resistant ovarian cancer cells CP70; format: cell-based; details: 2 uM, 6 days, 3D culture (FIG. 8)
Method: FIG. 8. Treatment with PTK6 degraders, but not kinase activity inhibitor, suppress viability of chemotherapy-resistant ovarian cancer cells (CP70). Cells were seeded into 3D Matrigel cultures and treated with compounds (2 uM) for 6 days. Viability was assessed using 3D Cell Titre glo assay (Promega)
Platinum resistant ovarian cancer cells CP70 were treated with PTK6 degrader or kinase inhibitor P21d (2 uM) for 6 days in 3D culture. Viability after 6 days was assessed by 3D Cell Titer glo.

[4] = compared with shRNA, all cell lines evaluated; cited from earlier work
TNBC cells = details: compared with PTK6 shRNA; cited from earlier work

T1 sequence (Q13882 whole entry): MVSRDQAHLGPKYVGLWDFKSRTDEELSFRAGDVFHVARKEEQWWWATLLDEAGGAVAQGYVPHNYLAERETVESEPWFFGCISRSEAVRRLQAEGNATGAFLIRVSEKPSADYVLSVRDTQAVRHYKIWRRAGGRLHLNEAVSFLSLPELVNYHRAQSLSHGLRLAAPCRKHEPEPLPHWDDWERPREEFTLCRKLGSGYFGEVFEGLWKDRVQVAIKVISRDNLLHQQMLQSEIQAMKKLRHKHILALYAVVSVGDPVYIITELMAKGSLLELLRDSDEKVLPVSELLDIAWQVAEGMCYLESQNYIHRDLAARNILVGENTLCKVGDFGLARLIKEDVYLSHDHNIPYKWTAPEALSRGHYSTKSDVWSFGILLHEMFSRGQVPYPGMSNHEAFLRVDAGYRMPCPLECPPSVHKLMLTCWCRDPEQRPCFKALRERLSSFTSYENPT

Row | Compound | PTK6 degradation with MG132 pretreatment (PTK6 [1]) | viability of MCF7 cells (MCF7 cells) | PTK6 degradation with PTK6 inhibitor pretreatment (PTK6 [2]) | reducing PTK6 protein levels / suppress PTK6 expression (PTK6 [3]) | growth and invasive branching in 3D cultures (MDA-MB231 cells) | viability of chemotherapy-resistant ovarian cells (CP70) (CP70 cells) | 3D growth [4] | EMT regulation of TNBC cells (TNBC cells)
1 | Cc1ncsc1-c1ccc(CNC(=O)[C@@H]2C[C@@H](O)CN2C(=O)[C@@H](NC(=O)CCCCCCCCNC(=O)CN2CCN(C(=O)c3ccc(Nc4nc(C5CC5)cn5c(-c6cn[nH]c6)cnc45)c(F)c3)CC2)C(C)(C)C)cc1 [YX39-105, (2S,4R)-1-((S)-2-(9-(2-(4-(4-((6-cyclopropyl-3-(1H-pyrazol-4-yl)imidazo[1,2-a]pyrazin-8-yl)amino)-3-fluorobenzoyl)piperazin-1-yl)acetamido)nonanamido)-3,3-dimethylbutanoyl)-4-hydroxy-N-(4-(4-methylthiazol-5-yl)benzyl)pyrrolidine-2-carboxamide] | Prevents PTK6 from being Degraded | significantly impaired viability of MCF7 cells in a dose-dependent manner | Prevents PTK6 from being Degraded | effective in reducing PTK6 protein levels | significantly suppressed growth and invasive branching | Suppressed Viability |  | 
2 | O=C(c1ccc(Nc2nc(C3CC3)cn3c(-c4cn[nH]c4)cnc23)c(F)c1)N1CCOCC1 [compound 21d] |  |  |  |  |  |  | did not consistently phenocopy the effects of shRNA | phenocopied the effects of PTK6 shRNA

— patent US12678507B2, “Protein tyrosine kinase 6 (PTK6) degradation / disruption compounds and methods of use” (Icahn School of Medicine at Mount Sinai, priority 2018, dated 2026)
